{"source": "patent US12161114B2", "about": "“Overpowered ABA receptor agonists” (The Regents of the University of California, priority 2018, dated 2024)", "key": {"[1]": {"test_system": "panel of recombinant ABA receptors; PP2C HAB1", "test": "receptor-mediated PP2C inhibition assay, dose response, umbelliferone substrate", "type": "biochemical, Arabidopsis", "description": "(§1) Each ligand was tested at concentrations spanning 7 points between 4 nM and 50 μM in triplicate in a reaction buffer containing 100 mM Tris-HCl-pH7.9, 100 mM NaCl, 30 μg/ml BSA, 0.1% 2-mercaptoethanol, 25 nM ΔN-HAB1, 1 mM 4-methylumbelliferyl phosphate, and different recombinant ABA receptors at 50 nM or 300 nM (for PYL9 or PYL11). The substrate was added ˜20 minutes after the other components had been mixed and fluorescence data collected. Control carrier solvent-only wells were included as a reference and %-activity for tested compounds calculated relative to this control. The dose response data (PP2C activity versus agonist concentration) was fit to a log (inhibitor) vs. response-(variable slope) model using non-linear regression to infer the IC50S, using GraphPad Prism 6.0, to yield the IC50 values shown in FIG. 6.\nThe potency and selectivity of ligands 2b, 2e-f was established by testing their ability to activate multiple ABA receptor subtypes using the fluorescence based phosphasted assay as outlined in example 2 at a range of concentrations (4 nM to 50 μM). In addition, we compared ligand potency to ABA, quinabactin and a recently described fluorinated quinabactin analog AMF4, which is reported to have improved potency in comparison toe quinabactin. To conduct the assays purified recombinant receptors were tested at 50 nM or, in the a cases of PYL9 and PYL11, 300 nM and 25 nM ΔN-HAB1. The PP2C-activity dose response data obtained was fit to a log (inhibitor) vs response-(variable slope) model using non-linear regression to infer the IC50S, using GraphPad Prism 6.0, to yield IC50 values as shown in FIG. 12A. […] Moreover, the installation of a single cyclopropyl group ortho to the nitrile (analog 2e) provided a further boost in potency, dramatically so for all subfamily III receptors, PYL4 and PYL11. […] Furthermore, the installation of a second cyclopropyl substituent (analog 2f) provides an even further boot in activity on subfamily III receptors, which comes at the expense of reduced potency on subfamily I receptors. […] 2f is therefore an unusually overpowered ABA receptor agonist, which we refer to as opabactin (Opa)."}, "PYR1": {"biological_target": "T1, PYR1 (Arabidopsis thaliana, UniProt O49686)", "T1 construct": "made in house", "T1 sequence (O49686 1-191)": "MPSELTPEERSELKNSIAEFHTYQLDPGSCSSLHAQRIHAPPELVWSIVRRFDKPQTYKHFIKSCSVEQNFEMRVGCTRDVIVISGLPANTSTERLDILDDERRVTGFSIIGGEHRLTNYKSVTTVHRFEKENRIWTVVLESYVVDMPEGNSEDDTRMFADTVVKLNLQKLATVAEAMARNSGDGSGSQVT", "T1 sequence (Q9CAJ0 180-511 partner limits assumed)": "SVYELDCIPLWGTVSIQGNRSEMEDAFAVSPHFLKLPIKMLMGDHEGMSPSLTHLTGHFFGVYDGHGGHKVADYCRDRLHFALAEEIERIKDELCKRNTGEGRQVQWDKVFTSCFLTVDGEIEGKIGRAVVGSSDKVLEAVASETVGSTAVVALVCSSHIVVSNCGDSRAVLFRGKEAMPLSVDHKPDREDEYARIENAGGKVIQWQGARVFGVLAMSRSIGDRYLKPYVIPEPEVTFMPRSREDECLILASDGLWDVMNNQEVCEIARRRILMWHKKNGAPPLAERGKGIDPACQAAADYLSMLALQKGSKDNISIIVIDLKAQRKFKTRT", "test": "receptor-mediated PP2C inhibition assay, fluorescence based, PYR1", "type": "biochemical", "description": "as §1\nThe potency and selectivity of ligands 2b, 2e-f was established by testing their ability to activate multiple ABA receptor subtypes using the fluorescence based phosphasted assay as outlined in example 2 at a range of concentrations (4 nM to 50 μM). […]\nWe first explored if replacing the cyclopropyl group with an isopropyl group affects the activity of the ligand against PYR1. Ligands were tested using the fluorescence based PP2C assay described in example 2."}, "[2]": {"test_system": "wild type Columbia Arabidopsis thaliana seeds", "test": "Arabidopsis seed germination assay", "type": "in vivo", "description": "(§2) Prior to selecting a scaffold for optimization we conducted Arabidopsis seed germination assays to establish if the hits obtained are activity in vivo. Germination experiments were performed with surface sterilized wild type Columbia Arabidopsis thaliana seeds and abi1C (the abi1-1 allele isolated in the Columbia ecotype) plated onto 0.7% agar medium containing 1/2-x MS salts, 0.5% sucrose and differing concentrations of the test compounds. After 4d of stratification at 4° C., the plates were transferred to a growth chamber under continuous illumination and evaluated after 4 days.\nTo establish if the in vitro potency of Opa translates into improved activity in vivo, we measured the effects of ABA, QB, AMF4, Opa and 2e on Arabidopsis seed germination at a range of concentrations to infer quantitative measures or potency. Methods similar to that described in Example 3 are followed. The percentage of germinated seeds were recorded for each chemical treatment for each concentration in quadruplicate. EC50 values denote the concentrations at which 50% of seeds have been inhibited."}, "[3]": {"test_system": "pyr1/pyl1, pyl8/pyl9 and abi1C mutants", "test": "seed germination on receptor mutants and ABA signalling mutant abi1C", "type": "in vivo, Arabidopsis", "conditions": "tested at twice the EC50", "description": "as §2\nMethods similar to example 3 were followed."}, "tomato plants": {"test_system": "tomato plants", "test": "thermal imaging of leaf temperature (anti-transpirant activity), tomato", "type": "in vivo, Lycopersicon esculentum", "conditions": "var. UC82, 50 μM or 100 μM spray, 24 hour intervals for 5 days", "description": "To evaluate the efficacy of Opa in a different crop species, we performed quantitative thermal imaging in tomato plants. Tomato (var. UC82), seeds were spread on a moist filter paper and incubated in a dark chamber at room temperature for 7 days, after which they were transferred to light. After the first leaves emerged, the seedlings were transferred to soil and grown on a day night cycle; 3-4 w old plants were used for thermal imaging. Before thermal imaging, topical spraying of the plants was performed with a water solution containing ABA, quinabactin or the compound of interest, 0.5% DMSO and 0.05% Silwet-77 (Lehle seeds). 20 mL of 50 μM or 100 μM solutions were sprayed on the plants and thermal images were taken with an infrared camera (FLIR T62101) at 24 hour intervals after treatment for 5 days. […] Mock treated samples were analyzed with 8 replicates and chemical treatments with 4 replicates. […] The corrected p-values for treatment effects at all time points is summarized in the inset table and highlighted yellow if a significant increase in leaf temperature was observed."}, "[4]": {"test_system": "Arabidopsis pMAPKKK18-Luc+ reporter strain seedlings", "test": "ABA reporter gene luminescence assay", "type": "in vivo", "conditions": "25 μM, 6-hours post-treatment", "description": "Liquid grown Arabidopsis […]18-Luc+ reporter strain seedlings were treated with 25 μM test compounds or a mock control and 100 μM luciferin. Luminescence images were captured 6-hours post-treatment."}}, "note": "“Also recorded” adds a separate entry of the source."}
{"smiles": "N#Cc1c(C2CC2)cc(CC(=O)NC2(C(=O)O)CCCCC2)cc1C1CC1", "note": "[2f, 1-[2-(4-cyano-3,5-dicyclopropylphenyl)acetamido]cyclohexane-1-carboxylic acid]", "values": [{"measurement": "potency in receptor-mediated PP2C inhibition (in words)", "setting": "[1]; 4 nM to 50 μM dose response", "result": "most potent subfamily III agonist reported to date; also recorded: greatly more active than quinabactin and AMF4 on subfamily III receptors"}, {"measurement": "improved potency relative to ABA", "setting": "[1]; subfamily IIIA receptors", "result": "> 10", "unit": "x"}, {"measurement": "increased potency on PYR1 relative to ABA", "setting": "PYR1", "result": "~10", "unit": "×"}, {"measurement": "test concentration (twice the EC50 for germination inhibition)", "setting": "[2]; Arabidopsis thaliana, printed value is twice the EC50, used as test concentration on mutants, read-out: twice the concentrations determined as its EC50 (inhibition of germination) (converted)", "result": 60, "unit": "nM"}, {"measurement": "fold more active than either QB or AMF4 in seed germination inhibition", "setting": "[2]; in vivo", "result": "> 10", "unit": "x"}, {"measurement": "inhibition of Arabidopsis seed germination (in words)", "setting": "[2]; in vivo", "result": "potently inhibits seed germination"}, {"measurement": "effect on germination in receptor mutant backgrounds", "setting": "[3]", "result": "only show diminished activity in the pyr1/pyl1 mutant"}, {"measurement": "anti-transpirant activity (leaf temperature)", "setting": "tomato plants", "result": "highly active anti-transpirant in tomato with significantly longer effects than ABA"}, {"measurement": "induction of ABA-transcriptional responses (luminescence)", "setting": "[4]", "result": "effective inducer of ABA-transcriptional responses"}]}
